Assay results taken from ChEMBL document CHEMBL5230138, “Design, synthesis, and antiviral activity of a series of CD4-mimetic small-molecule HIV-1 entry inhibitors” (Bioorg Med Chem, 2021).

Assays:
[1] = test system: Human immunodeficiency virus 1; test: microbe, parasite or virus in culture; conditions: Human immunodeficiency virus 1, HXB-2 subtype A, U87.CD4.CXCR4, 72 h
TZM = test: (§1) Cytotoxicity against human TZM-bl cells assessed as reduction in cell viability incubated for 3 days by MTS assay; assay type: toxicity, cell-based; conditions: tzm, 72 h, time 3 day
[2] = Selectivity index, ratio of CC50 for HIV1 human TZM-bl cells to EC50 for HIV1 ENV pseudotype from the lab-adapted CXCR4-tropic HIV-1 HXB-2 infected in human TZM-bl cells; assay type: toxicity, cell-based; conditions: for selectivity ratio: TZM-bl cells, read-out: Selectivity Index
[3] = test system: Human immunodeficiency virus 1; test: Antiviral activity against HIV1 Env pseudotype from the lab-adapted CXCR4-tropic HIV-1 HXB-2 infected in human TZM-bl cells preincubated for 30 min followed by viral infection and measured after 3 days by luciferase-based single-cycle infection assay; assay type: functional, organism-based
[4] = as §1; assay type: toxicity, cell-based; conditions: TZM-bl cells, time 3 day
[5] = Human immunodeficiency virus 1, HXB-2, TZM-bl, read-out: IC50

NC[C@@H](NC(=O)c1ccc(-c2ccc(C(F)(F)F)cc2)[nH]1)c1ncc(CO)s1
IC50 [1]: 110 nM

NC[C@@H](NC(=O)c1ccc(-c2cc(F)c(Cl)c(F)c2)[nH]1)c1nc(CCO)cs1
CC50 (TZM; read-out: CC50): 32.8 µM | selectivity ratio [2]: 33.5 | IC50 [3, 5]: 980 nM

NC[C@H](NC(=O)c1ccc(-c2cc(F)c(Cl)c(F)c2)[nH]1)c1nc(CCO)cs1
selectivity ratio [2]: 218 | IC50 [3, 5]: 150 nM

NC[C@H](NC(=O)c1ccc(-c2ccc(C(F)(F)F)cc2C(F)(F)F)[nH]1)c1nc(CO)cs1
CC50 (TZM; read-out: CC50): 33.4 µM | selectivity ratio [2]: 7.9 | IC50 [3, 5]: 4200 nM

NC[C@H](NC(=O)c1ccc(-c2ccc(C(F)(F)F)c(F)c2)[nH]1)c1nc(CCO)cs1
CC50 (TZM; read-out: CC50): 24.4 µM | selectivity ratio [2]: 122 | IC50 [3, 5]: 200 nM

NC[C@@H](NC(=O)c1ccc(-c2ccc(C(F)(F)F)c(F)c2)[nH]1)c1nc(C(O)CO)cs1 (some centres not stated)
CC50 (TZM; read-out: CC50): 56.3 µM | selectivity ratio [2]: 23.4 | IC50 [3, 5]: 2400 nM

NC[C@H](NC(=O)c1ccc(-c2ccc(C(F)(F)F)c(F)c2)[nH]1)c1nc(C(O)CO)cs1 (some centres not stated)
CC50 (TZM; read-out: CC50): 72.4 µM | selectivity ratio [2]: 132 | IC50 [3, 5]: 550 nM

NC[C@H](NC(=O)c1ccc(-c2ccc(C(F)(F)F)c(F)c2)[nH]1)c1nc(C(=O)O)cs1
CC50 (TZM): Not Determined(Insoluble) | Selectivity Index [2]: Not Determined(Insoluble) | IC50 ([3]; tzm-bl): Not Determined(Insoluble)

Cc1cc(-c2ccc(C(F)(F)F)c(F)c2)[nH]c1C(=O)N[C@H](CN)c1ncc(CO)s1
CC50 (TZM; read-out: CC50): 10.4 µM | IC50 [3, 5]: 210 nM

N#Cc1ccc(-c2ccc(C(=O)N[C@@H](CN)c3nc(CO)cs3)[nH]2)cc1
Selectivity Index [2]: Not Determined(Insoluble) | IC50 [3, 5]: > 16000 nM

Cc1cc(-c2ccc(C(F)(F)F)c(F)c2)[nH]c1C(=O)N[C@@H](CN)c1ncc(CO)s1
CC50 (TZM; read-out: CC50): 10.3 µM | selectivity ratio [2]: 49.5 | IC50 [3, 5]: 150 nM

NC[C@@H](NC(=O)c1ccc(-c2ccc(C(F)(F)F)c(F)c2)[nH]1)c1ncc(C(O)CO)s1 (some centres not stated)
CC50 (TZM; read-out: CC50): 70.5 µM | selectivity ratio [2]: 119 | IC50 [3, 5]: 590 nM

COC(=O)c1csc([C@@H](CN)NC(=O)c2ccc(-c3ccc(C(F)(F)F)c(F)c3)[nH]2)n1
CC50 (TZM; read-out: CC50): 23.4 µM | selectivity ratio [2]: 4.8 | IC50 [3, 5]: 4900 nM

Cc1cc(-c2ccc(C(F)(F)F)c(F)c2)[nH]c1C(=O)N[C@@H](CN)c1nc(CO)cs1
CC50 (TZM; read-out: CC50): 18.5 µM | selectivity ratio [2]: 24.7 | IC50 [3, 5]: 540 nM

NC[C@H](NC(=O)c1ccc(-c2ccc(C(F)(F)F)c(F)c2)[nH]1)c1ncc(C(O)CO)s1 (some centres not stated)
CC50 (TZM; read-out: CC50): 98 µM | selectivity ratio [2]: 15.8 | IC50 [3, 5]: 6200 nM

NC[C@@H](NC(=O)c1ccc(-c2ccc(C(F)(F)F)c(F)c2)[nH]1)c1nc(CCO)cs1
CC50 (TZM; read-out: CC50): 24.2 µM | selectivity ratio [2]: 47.4 | IC50 [3, 5]: 510 nM

Cc1cc(-c2ccc(C(F)(F)F)c(F)c2)[nH]c1C(=O)N[C@H](CN)c1nc(CO)cs1
CC50 (TZM; read-out: CC50): 14.1 µM | selectivity ratio [2]: 20.6 | IC50 [3, 5]: 570 nM

CC(C)(N)[C@@H](NC(=O)c1ccc(-c2ccc(C(F)(F)F)cc2)[nH]1)c1nc(CO)cs1
CC50 (TZM; read-out: CC50): 19.9 µM | selectivity ratio [2]: 15.3 | IC50 [3, 5]: 1300 nM

CC(C)(N)[C@@H](NC(=O)c1ccc(-c2ccc(C(F)(F)F)cc2)[nH]1)c1ncc(CO)s1
CC50 (TZM; read-out: CC50): 23.1 µM | selectivity ratio [2]: 34 | IC50 [3, 5]: 680 nM

NC[C@H](NC(=O)c1ccc(-c2ccc(C(F)(F)F)cc2F)[nH]1)c1nc(CCO)cs1
CC50 (TZM; read-out: CC50): 39.6 µM

NC[C@@H](NC(=O)c1ccc(-c2ccc(C(F)(F)F)cc2F)[nH]1)c1nc(CCO)cs1
CC50 (TZM; read-out: CC50): 23.4 µM

CC(C)(N)[C@@H](NC(=O)c1ccc(-c2cc(F)c(Cl)c(F)c2)[nH]1)c1nc(CO)cs1
CC50 (TZM; read-out: CC50): 15.8 µM | selectivity ratio [2]: 135 | IC50 [3, 5]: 150 nM

NC[C@@H](NC(=O)c1ccc(-c2ccc(C(F)(F)F)c(F)c2)[nH]1)c1nc(CCCO)cs1
CC50 (TZM; read-out: CC50): 38 µM | selectivity ratio [2]: 10.8 | IC50 [3, 5]: 3500 nM

CC(C)(N)[C@H](NC(=O)c1ccc(-c2ccc(C(F)(F)F)cc2)[nH]1)c1nc(CO)cs1
CC50 (TZM; read-out: CC50): 17.5 µM | IC50 [3, 5]: 130 nM

NC[C@H](NC(=O)c1ccc(-c2ccc(C(F)(F)F)c(F)c2)[nH]1)c1nc(CCCO)cs1
CC50 (TZM; read-out: CC50): 22.6 µM | selectivity ratio [2]: 90.4 | IC50 [3, 5]: 250 nM

NC[C@H](NC(=O)c1ccc(-c2ccc(C(F)(F)F)cc2F)[nH]1)c1nc(CO)cs1
CC50 (TZM; read-out: CC50): 25.7 µM | selectivity ratio [2]: 137 | IC50 [3, 5]: 187 nM

CC(C)(N)[C@H](NC(=O)c1ccc(-c2ccc(C(F)(F)F)cc2)[nH]1)c1ncc(CO)s1
CC50 (TZM; read-out: CC50): 25.1 µM | selectivity ratio [2]: 109 | IC50 [3, 5]: 230 nM

NC[C@@H](NC(=O)c1ccc(-c2ccc(C(F)(F)F)cc2F)[nH]1)c1nc(CO)cs1
CC50 (TZM; read-out: CC50): 26.8 µM | selectivity ratio [2]: 43.9 | IC50 [3, 5]: 610 nM

NC[C@@H](NC(=O)c1ccc(-c2ccc(C(F)(F)F)cc2)[nH]1)c1ncc(COCC(O)CO)s1 (some centres not stated)
CC50 at 72 h [4]: 80 µM | selectivity ratio [2]: 38 | IC50 [3, 5]: 2100 nM

NC[C@@H](NC(=O)c1ccc(-c2ccc(C(F)(F)F)c(F)c2)[nH]1)c1nc(C(N)=O)cs1
CC50 (TZM; read-out: CC50): 25.9 µM | selectivity ratio [2]: 11.3 | IC50 [3, 5]: 2300 nM

N#Cc1ccc(-c2ccc(C(=O)N[C@H](CN)c3nc(CO)cs3)[nH]2)cc1
CC50 (TZM; read-out: CC50): > 82 µM | Selectivity Index [2]: Not Determined(Insoluble) | IC50 [3, 5]: > 16000 nM

NC[C@@H](NC(=O)c1ccc(-c2ccc(C(F)(F)F)c(F)c2)[nH]1)c1nc(C(=O)O)cs1
CC50 (TZM): Not Determined(Insoluble) | Selectivity Index [2]: Not Determined(Insoluble) | IC50 ([3]; tzm-bl): Not Determined(Insoluble)

CC(C)(N)[C@H](NC(=O)c1ccc(-c2cc(F)c(Cl)c(F)c2)[nH]1)c1nc(CO)cs1
CC50 (TZM; read-out: CC50): 16 µM | selectivity ratio [2]: 105 | IC50 [3, 5]: 120 nM

NC[C@H](NC(=O)c1ccc(-c2ccc(C(F)(F)F)cc2)[nH]1)c1ncc(COCC(O)CO)s1 (some centres not stated)
CC50 (TZM; read-out: CC50): > 61.9 µM | Selectivity Index [2]: Not Determined(Insoluble) | IC50 [3, 5]: > 13000 nM

NC[C@H](NC(=O)c1ccc(-c2ccc(C(F)(F)F)c(F)c2)[nH]1)c1nc(C(N)=O)cs1
CC50 (TZM; read-out: CC50): > 52 µM | selectivity ratio [2]: 34.2 | IC50 [3, 5]: > 10000 nM

NC[C@@H](NC(=O)c1ccc(-c2ccc(C(F)(F)F)cc2C(F)(F)F)[nH]1)c1nc(CO)cs1
CC50 (TZM; read-out: CC50): 37.6 µM | selectivity ratio [2]: 5.9 | IC50 [3, 5]: 6300 nM

COC(=O)c1csc([C@H](CN)NC(=O)c2ccc(-c3ccc(C(F)(F)F)c(F)c3)[nH]2)n1
CC50 (TZM; read-out: CC50): 41.6 µM | selectivity ratio [2]: 14.3 | IC50 [3, 5]: 2900 nM

CC(CN)(NC(=O)c1ccc(-c2cc(F)c(Cl)c(F)c2)[nH]1)c1nc(CO)cs1 (racemic)
CC50 (TZM; read-out: CC50): 47.7 µM | selectivity ratio [2]: 18.3 | IC50 [3, 5]: 2600 nM

CC(CN)(NC(=O)c1ccc(-c2ccc(C(F)(F)F)c(F)c2)[nH]1)c1nc(CO)cs1 (racemic)
CC50 (TZM; read-out: CC50): 45.3 µM | selectivity ratio [2]: 28 | IC50 [3, 5]: 1600 nM
